Patent US6653089B2, “Differential treatment of selected parts of a single cell with different fluid components” (President and Fellows of Harvard College, priority 2000, dated 2003)

Experiments:
[1] = system: BCE cells (actin filaments); assay: Partial treatment of single BCE cells with a membrane-permeable actin disrupting drug in a two-component laminar flow stream; type: cell-based, Bovine; settings: for actin cytoskeleton after treatment (phalloidin Alexa 594 stain): about 10 min
Experimental: (§1) Bovine adrenal capillary endothelial (BCE) cells were cultured and harvested as described in D. E. Ingber & J. Folkman, J. Cell Biol., Vol. 109, pp. 317-330, 1989, incorporated herein by reference. In brief, cells were cultured under 10% CO2 on Petri dishes (Falcon) coated with gelatin in DMEM (GIBCO) containing 10% calf serum (CS), 2 mM glutamine, 100 μg/ml streptomycin, 100 μg/ml penicillin, and 1 ng/ml basic fibroblast growth factor (bFGF). Cells were dissociated from culture plates with trypsin/EDTA and washed in DMEM containing 1% wt/vol BSA (BSA/DMEM). These cells were suspended in chemically defined medium (10 μg/ml high density lipoprotein/5 μg/ml transferrin/5 ng/ml bFGF in BSA/DMEM) as described in D. E. Ingber, Proc. Natl. Acad. Sci. USA, Vol. 87, pp. 3579-3583 (1990), incorporated herein by reference, introduced into capillary networks (pretreated with 50 μg/ml fibronectin for 1 hr) from the inlet wells, and incubated in 10% CO2 at 37° C. for 4-6 hr to permit attachment and spreading upon the glass cover slip forming the bottom of the microchannel network. After the above incubation to allow for binding and attachment, non-adherent cells were removed by washing each of the flow channels with media (1% wt/vol. BSA/DMEM) for about 3 min. at a maximum bulk flow velocity of about 0.6 cm/s (Re<1).
Device fabrication and cell culture and attachment of BCE cells was performed as described above in Example 1. Creation and maintenance of flow in the channels and selection and observation of a BCE cell positioned straddling the interface of two components of the flow stream established in the main flow channel was performed in a similar fashion as described previously in Example 1.
In the present example, prior to selective treatment of a portion of a single BCE cell with a membrane-permeable actin disrupting drug, the BCE cells attached to the microfluidic network were uniformly exposed to media containing Mitotracker Green™ FM mitochondrial stain, as described in Example 2, in order to uniformly stain the mitochondria of each of the BCE cells in the microfluidic channels. Subsequent to mitochondrial staining, partial cell treatment with the actin disrupting drug was accomplished by filling right-most well 316 (see FIG. 3A) of the microfluidic channel network with media containing latrunculin A (1 μM in DMEM/10% CS). Similar media, except not including the latrunculin A, was added to inlet wells 312 and 314, and flow was maintained during the experiment as described previously in Example 1. […]

BCE cells = assay: Intracellular gradient formation of a membrane permeable nucleic acid binding dye in a single BCE cell; type: cell-based, Bovine; settings: 60 μM Syto 9 in DMEM/10% CS over one portion of the cell, dye-free media over the other
Experimental: as §1, with “After the above incubation to allow for binding and attachment, non-adherent cells were removed by washing each of the flow channels with media (1% wt/vol. BSA/DMEM) for about 3 min. at a maximum bulk flow velocity of about 0.6 cm/s (Re<1).” left out
The flowing streams and attached BCEs were visualized utilizing a fluorescence inverted microscope, as illustrated in FIG. 3B. […]

Molecule	displacement of mitochondria and nucleus on local actin disruption ([1]; center cell, latrunculin A supplied to right-hand portion only, peripheral cell shape relatively unchanged)	actin cytoskeleton after treatment (phalloidin Alexa 594 stain) ([1]; center cell, only right-hand part exposed to latrunculin A-containing media, 1 μM)	positions of the mitochondria (Mitotracker Green FM stained) ([1]; center cell, right-hand part exposed to 1 μM latrunculin A for 10 min)	actin cytoskeleton after treatment (phalloidin Alexa 594 stain) ([1]; rightmost cell fully exposed to latrunculin A-containing media, 1 μM in DMEM/10% CS)	time until intracellular diffusion reached approximately its steady state value (BCE cells)
C/C1=C/C(=O)O[C@@H]2C[C@@H](CC[C@H](C)/C=C\C=C\CC1)O[C@@](O)([C@@H]1CSC(=O)N1)C2 [latrunculin A]	caused the mitochondria and nucleus to shift towards the left	greatest degree of actin disruption evident in its treated, right side portion	have shifted towards the left-hand (untreated) part of the cell	a substantial portion of the actin cytoskeleton appears, in the rightmost cell, to be depolymerized	–
Syto 9	–	–	–	–	about 10 minutes
